Test results reported in ChEMBL document CHEMBL1909046, “DrugMatrix in vitro pharmacology data”.

Experiments:
Cathepsin G = biological target: T1, Cathepsin G (Homo sapiens, UniProt P08311); assay type: tissue-based; conditions: neutrophil;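 further: inhibition of Cathepsin G enzyme activity, tested on an AMC-conjugated peptide substrate; in other assays of this panel Not Active means under 50% inhibition at 10 µM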
T1 sequence (P08311 whole entry): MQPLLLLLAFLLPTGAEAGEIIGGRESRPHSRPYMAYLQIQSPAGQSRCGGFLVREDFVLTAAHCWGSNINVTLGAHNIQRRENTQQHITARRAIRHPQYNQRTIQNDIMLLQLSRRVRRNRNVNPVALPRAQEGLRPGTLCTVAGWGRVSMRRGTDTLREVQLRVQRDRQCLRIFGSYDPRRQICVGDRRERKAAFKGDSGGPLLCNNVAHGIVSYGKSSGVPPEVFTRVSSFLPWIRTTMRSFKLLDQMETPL

[1] = biological target: T2, Neuropeptide Y receptor type 1 (Homo sapiens, UniProt P25929); assay type: cell membranes, Membrane; conditions: sk-n-mc; further: in other assays of this panel Not Active means under 50% inhibition at 10 µM
T2 sequence (P25929 whole entry): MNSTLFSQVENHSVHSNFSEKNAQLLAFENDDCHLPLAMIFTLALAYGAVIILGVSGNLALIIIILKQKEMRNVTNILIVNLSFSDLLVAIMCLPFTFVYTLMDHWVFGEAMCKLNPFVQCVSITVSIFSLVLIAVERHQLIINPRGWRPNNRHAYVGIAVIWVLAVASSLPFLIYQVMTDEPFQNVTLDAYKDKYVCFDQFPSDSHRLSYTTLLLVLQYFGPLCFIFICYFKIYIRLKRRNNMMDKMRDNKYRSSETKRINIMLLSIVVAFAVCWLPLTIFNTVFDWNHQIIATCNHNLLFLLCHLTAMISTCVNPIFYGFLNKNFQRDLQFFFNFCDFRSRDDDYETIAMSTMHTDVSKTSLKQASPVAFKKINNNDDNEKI

[2] = biological target: Aldo-keto reductase family 1 member B1 (Rattus norvegicus, UniProt P07943); assay type: tissue-based, Lens of camera-type eye;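 further: inhibition of aldose reductase enzyme activity, measured with DL-glyceraldehyde as the substrate; in other assays of this panel Not Active means under 50% inhibition at 10 µM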
[3] = biological target: Mitogen-activated protein kinase 3 (Homo sapiens, UniProt P27361); experiment: DRUGMATRIX: Protein Serine/Threonine Kinase, ERK1 enzyme inhibition (substrate: Myelin Basic Protein); set-up: species or system Escherichia coli; conditions: Not Active = under 50% inhibition at 10 µM
Chain of Mitogen-activated protein kinase 3 (P27361 whole entry): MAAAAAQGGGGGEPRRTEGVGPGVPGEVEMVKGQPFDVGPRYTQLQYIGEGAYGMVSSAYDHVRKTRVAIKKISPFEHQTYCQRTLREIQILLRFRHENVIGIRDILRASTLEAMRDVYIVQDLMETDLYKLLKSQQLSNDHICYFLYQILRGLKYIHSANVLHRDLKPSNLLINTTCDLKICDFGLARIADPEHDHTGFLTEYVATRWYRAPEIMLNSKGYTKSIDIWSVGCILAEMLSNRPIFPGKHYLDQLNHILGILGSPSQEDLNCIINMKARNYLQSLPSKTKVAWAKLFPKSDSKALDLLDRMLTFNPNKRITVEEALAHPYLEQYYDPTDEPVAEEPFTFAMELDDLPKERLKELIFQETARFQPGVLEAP

Nitric oxide synthase 1 = Nitric oxide synthase 1 (Rattus norvegicus, UniProt P29476); assay type: tissue-based, Cerebellum; further: in other assays of this panel Not Active means under 50% inhibition at 10 µM
Chain of Nitric oxide synthase 1 (P29476 whole entry): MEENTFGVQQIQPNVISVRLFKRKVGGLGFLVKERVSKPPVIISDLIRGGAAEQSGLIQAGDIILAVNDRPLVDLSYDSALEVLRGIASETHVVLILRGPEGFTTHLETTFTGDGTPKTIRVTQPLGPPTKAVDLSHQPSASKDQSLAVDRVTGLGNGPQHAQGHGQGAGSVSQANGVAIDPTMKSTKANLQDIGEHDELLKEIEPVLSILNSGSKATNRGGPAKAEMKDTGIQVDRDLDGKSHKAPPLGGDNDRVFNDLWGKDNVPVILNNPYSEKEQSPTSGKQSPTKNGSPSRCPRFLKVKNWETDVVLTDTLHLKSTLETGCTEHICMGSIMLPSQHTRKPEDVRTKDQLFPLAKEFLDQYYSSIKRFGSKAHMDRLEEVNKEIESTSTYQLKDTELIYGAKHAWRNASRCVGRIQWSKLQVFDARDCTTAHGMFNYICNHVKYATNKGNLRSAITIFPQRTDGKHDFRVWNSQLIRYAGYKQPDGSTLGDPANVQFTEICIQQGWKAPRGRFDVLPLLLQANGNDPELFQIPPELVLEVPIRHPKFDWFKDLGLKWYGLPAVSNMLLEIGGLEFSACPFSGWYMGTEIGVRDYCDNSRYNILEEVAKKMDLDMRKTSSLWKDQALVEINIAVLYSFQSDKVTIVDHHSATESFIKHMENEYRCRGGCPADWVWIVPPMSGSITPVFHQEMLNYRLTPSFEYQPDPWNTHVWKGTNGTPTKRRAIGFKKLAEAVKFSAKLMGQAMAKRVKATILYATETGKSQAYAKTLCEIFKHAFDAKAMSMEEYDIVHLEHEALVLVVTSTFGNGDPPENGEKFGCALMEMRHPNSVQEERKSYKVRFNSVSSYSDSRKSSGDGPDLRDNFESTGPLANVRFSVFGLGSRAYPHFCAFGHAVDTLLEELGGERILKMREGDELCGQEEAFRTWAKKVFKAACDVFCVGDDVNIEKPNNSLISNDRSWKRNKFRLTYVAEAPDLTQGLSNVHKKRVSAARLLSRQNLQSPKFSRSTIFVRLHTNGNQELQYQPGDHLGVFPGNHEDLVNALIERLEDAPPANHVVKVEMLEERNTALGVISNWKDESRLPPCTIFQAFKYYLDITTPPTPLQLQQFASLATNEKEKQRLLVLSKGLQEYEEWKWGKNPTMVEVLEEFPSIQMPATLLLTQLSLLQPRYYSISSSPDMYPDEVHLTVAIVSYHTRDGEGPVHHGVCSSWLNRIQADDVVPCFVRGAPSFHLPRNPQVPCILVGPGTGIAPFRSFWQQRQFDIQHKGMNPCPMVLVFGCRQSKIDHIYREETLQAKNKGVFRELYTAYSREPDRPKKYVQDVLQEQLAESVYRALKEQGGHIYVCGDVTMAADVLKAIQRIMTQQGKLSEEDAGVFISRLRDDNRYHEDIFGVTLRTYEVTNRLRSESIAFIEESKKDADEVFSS

Melanocortin receptor 3 = Melanocortin receptor 3 (Homo sapiens, UniProt P41968); assay type: cell membranes, Membrane; conditions: hek293; further: in other assays of this panel Not Active means under 50% inhibition at 10 µM
Chain of Melanocortin receptor 3 (P41968 whole entry): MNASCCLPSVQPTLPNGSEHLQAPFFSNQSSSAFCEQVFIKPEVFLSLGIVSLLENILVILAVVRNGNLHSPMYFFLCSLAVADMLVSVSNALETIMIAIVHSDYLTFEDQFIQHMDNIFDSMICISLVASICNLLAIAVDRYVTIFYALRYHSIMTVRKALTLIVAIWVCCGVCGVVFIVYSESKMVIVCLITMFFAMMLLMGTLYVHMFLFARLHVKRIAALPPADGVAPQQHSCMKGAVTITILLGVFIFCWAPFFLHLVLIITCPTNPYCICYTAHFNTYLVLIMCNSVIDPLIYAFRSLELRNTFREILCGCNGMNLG

[4] = biological target: T3, Alpha-1B adrenergic receptor (Rattus norvegicus, UniProt P15823); experiment: DRUGMATRIX: Alpha-1B adrenergic receptor radioligand binding (ligand: prazosin); assay type: cell membranes, Wistar, Liver, Membrane; conditions: Not Active = under 50% inhibition at 10 µM
T3 sequence (P15823 whole entry): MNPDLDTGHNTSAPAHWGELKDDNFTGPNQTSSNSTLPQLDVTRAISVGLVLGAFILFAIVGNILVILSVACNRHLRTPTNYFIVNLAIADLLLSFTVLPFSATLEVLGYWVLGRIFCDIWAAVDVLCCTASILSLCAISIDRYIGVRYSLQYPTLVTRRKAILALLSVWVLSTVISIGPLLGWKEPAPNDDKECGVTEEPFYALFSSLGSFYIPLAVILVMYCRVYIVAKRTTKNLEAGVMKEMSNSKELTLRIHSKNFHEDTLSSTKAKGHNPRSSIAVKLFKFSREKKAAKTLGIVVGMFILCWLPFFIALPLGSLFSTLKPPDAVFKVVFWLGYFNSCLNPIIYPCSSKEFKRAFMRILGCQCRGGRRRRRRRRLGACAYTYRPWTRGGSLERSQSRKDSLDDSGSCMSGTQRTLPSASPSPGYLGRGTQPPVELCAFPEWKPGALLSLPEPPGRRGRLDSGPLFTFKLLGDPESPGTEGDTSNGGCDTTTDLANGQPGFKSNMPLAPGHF

Interstitial collagenase = biological target: T4, Interstitial collagenase (Homo sapiens, UniProt P03956); assay type: tissue-based, Rheumatoid synovial fibroblasts
T4 sequence (P03956 whole entry): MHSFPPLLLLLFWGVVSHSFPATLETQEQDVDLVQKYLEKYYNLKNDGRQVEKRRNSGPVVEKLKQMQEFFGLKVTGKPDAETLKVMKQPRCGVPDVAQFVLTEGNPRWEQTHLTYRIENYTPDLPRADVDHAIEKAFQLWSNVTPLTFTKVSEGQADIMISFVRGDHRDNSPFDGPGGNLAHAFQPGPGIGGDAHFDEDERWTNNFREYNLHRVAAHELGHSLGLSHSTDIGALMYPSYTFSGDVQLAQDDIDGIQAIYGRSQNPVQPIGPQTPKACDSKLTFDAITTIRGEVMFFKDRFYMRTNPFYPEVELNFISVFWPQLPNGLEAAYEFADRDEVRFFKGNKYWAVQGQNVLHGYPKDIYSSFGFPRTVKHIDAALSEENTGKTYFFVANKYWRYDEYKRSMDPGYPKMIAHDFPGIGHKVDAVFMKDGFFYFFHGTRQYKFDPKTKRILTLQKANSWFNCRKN

Endothelin-1 receptor = biological target: T5, Endothelin-1 receptor (Homo sapiens, UniProt P25101); assay type: cell membranes, Membrane; conditions: cho-k1; further: in other assays of this panel Not Active means under 50% inhibition at 10 µM
T5 sequence (P25101 whole entry): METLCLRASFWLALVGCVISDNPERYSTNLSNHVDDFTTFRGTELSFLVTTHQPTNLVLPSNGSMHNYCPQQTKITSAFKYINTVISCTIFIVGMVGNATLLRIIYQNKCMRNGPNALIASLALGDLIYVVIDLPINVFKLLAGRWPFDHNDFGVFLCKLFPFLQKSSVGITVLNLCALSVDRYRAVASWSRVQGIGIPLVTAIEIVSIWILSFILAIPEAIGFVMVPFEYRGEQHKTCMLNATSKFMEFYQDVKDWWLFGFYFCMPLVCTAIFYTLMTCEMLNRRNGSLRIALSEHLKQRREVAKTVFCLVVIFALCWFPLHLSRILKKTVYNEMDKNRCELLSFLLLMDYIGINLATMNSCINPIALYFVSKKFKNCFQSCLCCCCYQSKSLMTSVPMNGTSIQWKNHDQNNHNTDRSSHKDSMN

[5] = biological target: T6, Vasoactive intestinal polypeptide receptor 1 (Homo sapiens, UniProt P32241); assay type: cell membranes, Membrane; conditions: ht-29; further: in other assays of this panel Not Active means under 50% inhibition at 10 µM
T6 sequence (P32241 whole entry): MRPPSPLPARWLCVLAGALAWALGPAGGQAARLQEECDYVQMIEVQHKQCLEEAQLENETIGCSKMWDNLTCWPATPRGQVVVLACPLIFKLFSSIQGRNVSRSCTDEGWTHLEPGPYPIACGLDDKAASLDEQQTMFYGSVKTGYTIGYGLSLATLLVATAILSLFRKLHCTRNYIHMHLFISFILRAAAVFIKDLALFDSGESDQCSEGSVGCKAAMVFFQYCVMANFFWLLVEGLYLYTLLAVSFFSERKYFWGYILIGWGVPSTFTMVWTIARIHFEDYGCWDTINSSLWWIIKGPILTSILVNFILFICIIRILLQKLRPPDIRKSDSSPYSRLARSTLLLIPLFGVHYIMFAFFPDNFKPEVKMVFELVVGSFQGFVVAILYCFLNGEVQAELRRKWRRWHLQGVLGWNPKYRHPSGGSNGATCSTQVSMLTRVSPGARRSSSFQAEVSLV

Measured: IC50

Oc1cccc2cccnc12 [OXYQUINOLINE]
Not Active: all assays above

CN(C)[C@@H]1C(O)=C(C(N)=O)C(=O)[C@@]2(O)C(O)=C3C(=O)c4c(O)cccc4[C@@](C)(O)[C@H]3[C@H](O)[C@@H]12 [OXYTETRACYCLINE]
Not Active: all assays above

Fc1ccc([C@@H]2CCNC[C@H]2COc2ccc3c(c2)OCO3)cc1 [PAROXETINE]
Not Active: all assays above

CC(C)(S)[C@@H](N)C(=O)O [PENICILLAMINE]
Not Active: all assays above

CC(=O)CCCCn1c(=O)c2c(ncn2C)n(C)c1=O [PENTOXIFYLLINE]
Not Active: all assays above

O=C1NC(=O)C(c2ccccc2)(c2ccccc2)N1 [PHENYTOIN]
Not Active: all assays above

CNC(=O)Oc1ccc2c(c1)[C@]1(C)CCN(C)[C@@H]1N2C [PHYSOSTIGMINE]
Not Active: all assays above
